Among the data in PubChem BioAssay AID489022 (Sanford-Burnham Center for Chemical Genomics, 2010) are IC50 values, retold here.

The source made the active and inactive calls. The rule behind the calls is not given here.

Broadly, the IC50 is the concentration at which inhibition is half-maximal.

For this assay, the system named is HEK-293T NF-kB luciferase reporter, luminescence counterscreen. Briefly: inhibitors of NF-kB luciferase reporter, HEK-293T, dose response, counter-screen for BCR NF-kB inhibitor project, luminescence, B-cell screen hits (AID 489022).
As to `COc1ccc(/C=C\C(=O)O[C@@H]2C(O)C(O[C@@H]3OC(C)[C@H](O[C@@H]4OCC(O[C@H]5O[C@H](CO)[C@@H](O)C(O)C5O)C(O)C4O)C(O)C3O)[C@H](OC(=O)[C@]34CCC(C)(C)C[C@@H]3C3=CCC5[C@@]6(C)CC(O)C(O[C@@H]7OC(CO)C(O)[C@H](O)[C@H]7O)[C@@](C)(C(=O)O)C6CC[C@@]5(C)[C@]3(CO)CC4)O[C@H]2C)cc1` (stereo partly drawn), the IC50 is 45.7 µM (inactive). The result for `Cc1cc(C)cc(N2C(=O)NC(=O)/C(=C\c3cccn3-c3ccccc3)C2=O)c1` reads > 80 µM (inactive); that for `CC(C)Cn1c([N+](=O)[O-])nc2c1c(=O)[nH]c(=O)n2C`, 37 µM (inactive). Take `Cc1ccccc1-c1cc(C(=O)Nc2sc(C(=O)OC(C)C)c(C)c2C#N)c2ccccc2n1`: the IC50 is 0.35 µM.

With `CCOc1ccc(NC(=O)CCCc2cc(-c3ccc(OCC)cc3)on2)cc1`, the IC50 is > 80 µM (inactive). Under `Cc1cc(C)c2nc(NC(=O)[C@@H](NC(=O)c3cccc(S(=O)(=O)N4CCOCC4)c3)C(C)C)sc2c1` stands > 80 µM (inactive); under `CCn1c(=O)cc(OCC(=O)N(C)C2CCCCC2)c2ccccc21`, > 80 µM (inactive); under `C=CCn1c(O)c(C(C)=NC(C)c2ccccc2)c(=O)[nH]c1=O` (stereo not drawn), 60.2 µM (inactive). Consider `Cc1cccn2c(=O)c3cc(C(=O)NC4CCCCC4)c(=N)n(CCN4CCOCC4)c3nc12`, for which the IC50 is > 80 µM (inactive). In the case of `N=c1c2c(n(Cc3cccc(Cl)c3)c3c1CCC3)CCCC2`, the 50% inhibitory concentration (IC50) was 3.77 µM. Under `Cc1ccc(C)c(-n2nnnc2Sc2nnnn2-c2ccccc2)c1` stands 6.7 µM; under `COc1ccc(-c2ccc(F)cc2)cc1[C@H]1[C@H]2C=CC[C@@H](C)[C@@H]2C(=O)N1Cc1ccccc1`, 13.1 µM. For `CC(C)c1ccc(/C=C2\SC(=S)N(CCC(=O)N3CCCCC3CCO)C2=O)cc1` (stereo not drawn), the half-inhibitory concentration (IC50) is 17.5 µM. Under `N#Cc1ccccc1COc1ccc(/C=C/C(=O)O)cc1` stands 6.03 µM; under `C=CCOc1ccc(NC(=O)C(=O)NCCCn2ccnc2)cc1`, > 80 µM (inactive); under `Cc1cc(-c2cc(C(=O)NCc3ccccc3)on2)nc(S(C)(=O)=O)n1`, 15.6 µM. Turning to `COc1cccc(-c2noc(CCC(=O)NCCc3ccccc3)n2)c1`, the IC50 was 75.4 µM (inactive). Turning to `COc1ccc(C(=O)Nc2nnc(SCC(=O)Nc3ccc(NC(C)=O)cc3)s2)c(OC)c1`, the IC50 was > 80 µM (inactive). Turning to `COc1ccc(/C=C/c2ccccc2)cc1[C@H]1[C@H]2C=CC[C@@H](C)[C@@H]2C(=O)N1Cc1ccccc1`, the IC50 was > 80 µM (inactive). On to `Cc1cccc(C(=O)Nc2ccc(CC(=O)O)cc2)c1`, for which the IC50 was 45.2 µM (inactive). Under `CC1(c2nnc(-c3cccc(Cl)c3)o2)CC(c2cccc(Cl)c2)=NO1` (stereo not drawn) stands 29.9 µM (inactive); under `CC(=O)c1cccc(S(=O)(=O)Nc2cc(C(F)(F)F)ccc2N2CCOCC2)c1`, > 80 µM (inactive). The result for `CCCN1C(=O)/C(=C/c2c(N3CCNC(=O)C3CC(=O)OCC)nc3c(C)cccn3c2=O)SC1=S` (stereo not drawn) reads 14.5 µM; that for `Cc1cc(C)c(S(=O)(=O)NCc2ccncc2)c(C)c1`, 0.97 µM; that for `COc1ccc(/C=C2\SC(=S)N(CCCC(=O)NNC(=O)c3ccccc3O)C2=O)cc1`, 2.28 µM. Under `Cn1c(=O)cc(OCC(=O)N2CCC3(CC2)OCCO3)c2ccccc21` stands > 80 µM (inactive); under `c1ccc(CCNc2ncnc3ccccc23)cc1`, 0.45 µM; under `O=C(Nc1cccc(Oc2ccc3c(c2)C(=O)NC3=O)c1)c1cccs1`, 28.8 µM (inactive). Regarding `CCC(C)N1C(=O)/C(=C/c2c(NCCCOC(C)C)nc3c(C)cccn3c2=O)SC1=S` (stereo not drawn), the IC50 was > 80 µM (inactive). Under `CCN(CC)CCOC(=O)c1ccc(NC(=O)CCCN2C(=O)S/C(=C/c3ccc(OC)cc3)C2=S)cc1` stands 11.6 µM. For the compound `Cc1ccc(-c2nn3c(C)nnc3c3ccccc23)cc1S(=O)(=O)NCc1ccco1`, the IC50 is 15.4 µM. As to `Cc1[nH]c2ccccc2c1C(=O)CN1C(=O)NC2(CC(C)CC(C)(C)C2)C1=O` (stereo not drawn), the IC50 was 43.3 µM (inactive). Under `COc1ccc(-c2nsc(SCC(=O)Nc3cc(C)on3)n2)cc1` stands > 80 µM (inactive); under `Cc1ccc(O)c(NC(=O)COc2cc(C)ccc2C)c1`, > 80 µM (inactive); under `CCOc1ccc(-c2cc(CCCC(=O)NCc3ccco3)no2)cc1`, 22.1 µM (inactive). As to `CCOc1cc2nc(-c3ccc(OC)c(OC)c3)nc(N3CCOCC3)c2cc1OC`, the IC50 is 7.5 µM. The result for `Cc1ccc(-c2nsc3c(N4CCC(C(N)=O)CC4)ncnc23)cc1` reads > 80 µM (inactive); that for `O=C(Nc1cccc(Br)c1)c1ccc2c(c1)SC1=NS(=O)(=O)CCN12`, 10.5 µM; that for `COc1ccccc1/C=C1\SC(=S)N(CCC(=O)Nc2nnc(C)s2)C1=O`, > 80 µM (inactive).

As to `CCCNC(=O)c1ccc(N2CCC3(CC2)CC(c2cccc(Br)c2)=NO3)c(NC(=O)c2ccc(Cl)c([N+](=O)[O-])c2)c1`, the IC50 is > 80 µM (inactive).

For `CN(CC1CCCO1)S(=O)(=O)c1ccc(C(=O)Nc2nc3cc4c(cc3s2)OCO4)cc1` (stereo not drawn), the IC50 was 0.36 µM. Under `CCN1C(=O)c2cccc3c(S(=O)(=O)NCC4CCCO4)ccc1c23` (stereo not drawn) stands 54.5 µM (inactive); under `COc1cccc(/C=C2/SC(=S)N(CCCC(=O)Nc3ccc(O)cc3)C2=O)c1`, 50.6 µM (inactive). The result for `Cc1ccc(/C=C2\SC(=S)N(CCCC(=O)Nc3ccc(O)cc3)C2=O)cc1` reads > 80 µM (inactive); that for `CC1CCc2c(sc3nc(C(C)(C)C)nc(N4CCN(C(=O)CCl)CC4)c23)C1` (stereo not drawn), 30.6 µM (inactive). Under `COc1ccc(/C=N/OCC(=O)NC(c2ccccc2)c2ccccc2)cc1OC` stands 0.72 µM; under `CC(C)C(=O)Nc1ccc(NC(=O)c2ccc3c(c2)OCO3)cc1`, > 80 µM (inactive); under `CCC(=O)N1c2ccccc2[C@@H](N(C(C)=O)c2ccccc2)C[C@H]1C`, 39.2 µM (inactive). With `CN(C)C(=O)CCc1nc(-c2ccc(C(C)(C)C)cc2)no1`, the IC50 was 51.8 µM (inactive). The result for `COc1ccc(/C=C2/SC(=S)N(CCCC(=O)Nc3ccc(O)cc3)C2=O)cc1` reads > 80 µM (inactive). As to `Cn1nc(-c2ccc(N3CCOCC3)c(NS(=O)(=O)c3ccccc3)c2)c2ccccc2c1=O`, the IC50 is 36.9 µM (inactive). For the compound `COc1ccc(NC(=O)c2cc3c(Cl)nc4ccccc4c3s2)cc1OC`, the IC50 was > 80 µM (inactive). For `COc1ccc(C(=O)Nc2nnc(Cc3cccs3)s2)cc1OC`, the IC50 was > 80 µM (inactive).

On to `COc1ccc(-c2noc(CCCC(=O)Nc3ccc(C(N)=O)cc3)n2)cc1`, for which the IC50 was 27.3 µM (inactive). The result for `COc1ccc(CC(=O)Nc2cccc(-c3ccc4nnc(C)n4n3)c2)cc1` reads 41.8 µM (inactive). As to `Cn1c(=O)cc(OCCCC(=O)N2CCCCC2)c2ccccc21`, the IC50 was 60.2 µM (inactive). As for `COC(=O)c1[nH]c2ccc(C)cc2c1NC(=O)Nc1ccccc1OC`, the IC50 was > 80 µM (inactive). The result for `CCN(CC(=O)Nc1c(F)cccc1F)C(=O)C1(c2ccccc2)CC1` reads > 80 µM (inactive).
